This assay deals with Protein disulfide-isomerase (Homo sapiens) (UniProt P07237). In words: PDI inhibitors, insulin turbidity readout, confirmation, biochemical, dry powder samples, set 2 (AID 652146). The following applies: PDI insulin reduction turbidity, plate reader.

The structures appear in SMILES notation.

Chain of Protein disulfide-isomerase (Homo sapiens) (P07237 whole entry, looked up): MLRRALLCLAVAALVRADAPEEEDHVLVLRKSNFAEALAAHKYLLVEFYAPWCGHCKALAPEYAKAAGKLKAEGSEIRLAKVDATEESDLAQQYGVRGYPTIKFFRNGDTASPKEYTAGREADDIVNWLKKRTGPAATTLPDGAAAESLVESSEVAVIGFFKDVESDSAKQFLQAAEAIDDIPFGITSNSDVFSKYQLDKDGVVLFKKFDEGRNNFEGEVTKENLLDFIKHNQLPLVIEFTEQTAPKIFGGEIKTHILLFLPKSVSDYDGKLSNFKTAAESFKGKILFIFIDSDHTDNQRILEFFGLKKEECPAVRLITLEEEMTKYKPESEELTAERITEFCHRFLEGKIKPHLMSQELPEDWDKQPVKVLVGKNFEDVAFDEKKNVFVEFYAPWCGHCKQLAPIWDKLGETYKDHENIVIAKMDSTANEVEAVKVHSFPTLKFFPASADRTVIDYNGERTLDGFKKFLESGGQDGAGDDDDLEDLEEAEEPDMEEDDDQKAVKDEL

In the case of `CCOC(=O)C1(CCOc2ccccc2)CCN(Cc2ccc(O)c(Cl)c2)CC1`, the AC50 is 0.1 µM.

By AC50 is commonly meant the concentration giving half of the maximal activity seen.

The values are drawn from PubChem BioAssay AID652146 (Broad Institute, 2013).
